Assay results from article PMC11999280, “Design and screening of novel endosomal escape compounds that enhance functional delivery of oligonucleotides in vitro” (Molecular Therapy. Nucleic Acids, 2025).

Legend:
Format in all cases: cell-based
[1] = system: mCherry-GAL9 expressing NCI-H358 cells; assay: GAL9 recruitment assay, NCI-H358; conditions: calculated mean from >3 independent exp.
Protocol: (§1) Experiments assessing GAL9 localization as an indicator for endosomal remodeling were performed as previously described[15] using 8× stablemCherry-GAL9 expressing cell lines, SHSY5Y, U2OS, 16HBE, NCI-H358, HuH7, HepG2, HEK293, and HeLa. For mCherry-GAL9 recruitment, 3,000 or 6,500 cells/well (depending upon cell line) were seeded into 384-well CellCarrier Ultra plates 24 h prior to treatment (PerkinElmer, catalog no. 6007558). An Echo 655T acoustic dispenser (Labcyte) was used for EEE dose-response preparation by transferring to the cell plate. At assay endpoints, cells were PBS washed, 4% paraformaldehyde fixed at room temperature […] (VWR, catalog no. 9713.1000), and nuclei stained with PBS +1 μg/mL Hoechst 33342 (Thermo Fisher Scientific, catalog no. H21492).
(§2) Imaging was performed using a spinning-disk confocal microscope (Yokogawa: CV8000) with a ×20w objective (numerical aperture 1.0). Cells and mCherry-GAL9 structure identification and quantification were done using Columbus image-analysis software (PerkinElmer version 2.9.0). Data processing was done using Spotfire (Tibco version 11.4) and Prism (GraphPad version 9.1.0). Image panels were assembled using the FigureJ plugin for FIJI.[43] All mCherry-GAL9 experiments were performed three times (N = 3) with duplicated wells per treatment (n = 2).

[2] = system: mCherry-GAL9 expressing HepG2 cells; assay: GAL9 recruitment assay, HepG2; conditions: calculated mean from >3 independent exp.
Protocol: as §1, §2

[3] = system: mCherry-GAL9 expressing HEK293 cells; assay: GAL9 recruitment assay, HEK293; conditions: calculated mean from >3 independent exp.
Protocol: as §1, §2

[4] = system: mCherry-GAL9 expressing HeLa cells; assay: GAL9 recruitment assay, HeLa; conditions: calculated mean from >3 independent exp.
Protocol: as §1, §2

[5] = system: mCherry-GAL9 expressing SHSY5Y cells; assay: GAL9 recruitment assay, SHSY5Y; conditions: calculated mean from >3 independent exp.
Protocol: as §1, §2

[6] = system: mCherry-GAL9 expressing 16HBE cells; assay: GAL9 recruitment assay, 16HBE; conditions: calculated mean from >3 independent exp.
Protocol: as §1, §2

[7] = system: mCherry-GAL9 expressing U2OS cells; assay: GAL9 recruitment assay, U2OS; conditions: calculated mean from >3 independent exp.
Protocol: as §1, §2

[8] = system: HeLa_Luc705 cells (pLuc/705 splice-switching reporter); assay: Functional 705-SSO delivery, luciferase splice-switching assay; conditions: HeLa-Luc705 + 2 µM SSO; EEE 2.5 - 3 µM; mean from >3 independent experiments
Excerpt: Therefore, next, we functionally screened the SSO delivery in the HeLa_Luc705 reporter cell line. HeLa_Luc705 carries a pLuc/705 splice-switching reporter luciferase gene interrupted by a mutated β-globin intron, which creates a preferentially used cryptic 5′ splice site leading to aberrant splicing. Functional SSO delivery masks the cryptic site, redirecting the splicing machinery to the right splicing site, allowing the measurement of luciferase expression (Figure S1).[25]^,[26]^,[27]^,[28] We used SSO transfection with LF2000 as transfection control and the previously published endosomal escape enhancer CMP05 (here, EEE2) as positive control.[15]
For the assessment of functional SSO therapeutics, a HeLa_Luc705 cell line was grown in DMEM media supplemented with 10% fetal bovine serum (FBS). For most treatments, 10,000 cells/well were seeded in a 96-well plate, 24 h pre-incubated with 1- to 2-μM oligonucleotide, and then treated at the described EEE concentration. At 24 h post-treatment, cells were PBS rinsed and collected for further analysis (treatments and incubation times changed accordingly to the experiment design). Luciferase readout was performed as previously described,[15] using a GloMax 96-well plate microplate luminometer (Promega) immediately after adding 30 μL auto-injected luciferin substrate (Promega Firefly Luciferase Assay System; Thermo Scientific, catalog no. 16174) in a white-walled 96-well plate containing 30 μL 0.1% Triton X-100 (Sigma-Aldrich) cell lysed. Photon exposure time and delay were set to 10 and 2 s after injection. LF2000 was used as the transfection reagent control (Thermo Scientific, catalog no. 11668019). For EEE experiments using 1 or 2 μM SSOs, the control was prepared using lipofection with 100–200 nM SSO; this is to avoid complex induced cell toxicity.
705-SSO was purchased from and synthesized by Integrated DNA Technologies. The 705-SSO sequence was previously published, containing 2′-O-methylated bases and only phosphorothioate-saturated backbone linkages were included.[15] The 705-SSO was high-performance liquid chromatography purified, shipped, and stored in IDTE buffer (10 mM Tris, 0.1 mM EDTA).

[9] = system: mCherry-GAL9 expressing HuH7 cells; assay: GAL9 recruitment assay, HuH7; conditions: calculated mean from >3 independent exp.
Protocol: as §1, §2

SMILES: CCOc1nn(C2CCN(C)CC2)cc1Nc1ncc(C(F)(F)F)c(-c2c[nH]c3ccccc23)n1 [EEE15]
- Gal9 response compared to reference ([1]; EEE 0.31 µM): 0.013
- Gal9 response compared to reference ([1]; EEE 0.62 µM): 0.016
- Gal9 response compared to reference ([1]; EEE 1.25 µM): 0.017
- Gal9 response compared to reference ([1]; EEE 2.5 µM): 0.015
- Gal9 response compared to reference ([1]; EEE 5 µM): 0.016
- Gal9 response compared to reference ([1]; EEE 10 µM): 0.011
- Gal9 response compared to reference ([2]; EEE 0.31 µM): 0.008
- Gal9 response compared to reference ([2]; EEE 0.62 µM): 0.008
- Gal9 response compared to reference ([2]; EEE 1.25 µM): 0.009
- Gal9 response compared to reference ([2]; EEE 2.5 µM): 0.007
- Gal9 response compared to reference ([2]; EEE 5 µM): 0.007
- Gal9 response compared to reference ([2]; EEE 10 µM): 0.010
- Gal9 response compared to reference ([3]; EEE 0.31 µM): 0.020
- Gal9 response compared to reference ([3]; EEE 0.62 µM): 0.019
- Gal9 response compared to reference ([3]; EEE 1.25 µM): 0.015
- Gal9 response compared to reference ([3]; EEE 2.5 µM): 0.015
- Gal9 response compared to reference ([3]; EEE 5 µM): 0.018
- Gal9 response compared to reference ([3]; EEE 10 µM): 0.022
- Gal9 response compared to reference ([4]; EEE 0.31 µM): 0.004
- Gal9 response compared to reference ([4]; EEE 0.62 µM): 0.004
- Gal9 response compared to reference ([4]; EEE 1.25 µM): 0.004
- Gal9 response compared to reference ([4]; EEE 2.5 µM): 0.005
- Gal9 response compared to reference ([4]; EEE 5 µM): 0.004
- Gal9 response compared to reference ([4]; EEE 10 µM): 0.003
- Gal9 response compared to reference ([5]; EEE 0.31 µM): 0.014
- Gal9 response compared to reference ([5]; EEE 0.62 µM): 0.017
- Gal9 response compared to reference ([5]; EEE 1.25 µM): 0.014
- Gal9 response compared to reference ([5]; EEE 2.5 µM): 0.016
- Gal9 response compared to reference ([5]; EEE 5 µM): 0.012
- Gal9 response compared to reference ([5]; EEE 10 µM): 0.012
- Gal9 response compared to reference ([6]; EEE 0.31 µM): 0.006
- Gal9 response compared to reference ([6]; EEE 0.62 µM): 0.007
- Gal9 response compared to reference ([6]; EEE 1.25 µM): 0.007
- Gal9 response compared to reference ([6]; EEE 2.5 µM): 0.008
- Gal9 response compared to reference ([6]; EEE 5 µM): 0.010
- Gal9 response compared to reference ([6]; EEE 10 µM): 0.034
- Gal9 response compared to reference ([7]; EEE 0.31 µM): 0.010
- Gal9 response compared to reference ([7]; EEE 0.62 µM): 0.009
- Gal9 response compared to reference ([7]; EEE 1.25 µM): 0.010
- Gal9 response compared to reference ([7]; EEE 2.5 µM): 0.009
- Gal9 response compared to reference ([7]; EEE 5 µM): 0.014
- Gal9 response compared to reference ([7]; EEE 10 µM): 0.014
- Luciferase expression compared to reference [8]: 0.652
- Gal9 response compared to reference ([9]; EEE 0.31 µM): 0.008
- Gal9 response compared to reference ([9]; EEE 0.62 µM): 0.007
- Gal9 response compared to reference ([9]; EEE 1.25 µM): 0.008
- Gal9 response compared to reference ([9]; EEE 2.5 µM): 0.009
- Gal9 response compared to reference ([9]; EEE 5 µM): 0.009
- Gal9 response compared to reference ([9]; EEE 10 µM): 0.011

SMILES: COc1nn(C2CCN(C)CC2)cc1Nc1ncc(C(F)(F)F)c(-n2ccc3c(C#N)cccc32)n1 [EEE16]
- Gal9 response compared to reference ([1]; EEE 0.31 µM): 0.014
- Gal9 response compared to reference ([1]; EEE 0.62 µM): 0.017
- Gal9 response compared to reference ([1]; EEE 1.25 µM): 0.014
- Gal9 response compared to reference ([1]; EEE 2.5 µM): 0.018
- Gal9 response compared to reference ([1]; EEE 5 µM): 0.014
- Gal9 response compared to reference ([1]; EEE 10 µM): 0.019
- Gal9 response compared to reference ([2]; EEE 0.31 µM): 0.010
- Gal9 response compared to reference ([2]; EEE 0.62 µM): 0.007
- Gal9 response compared to reference ([2]; EEE 1.25 µM): 0.008
- Gal9 response compared to reference ([2]; EEE 2.5 µM): 0.008
- Gal9 response compared to reference ([2]; EEE 5 µM): 0.009
- Gal9 response compared to reference ([2]; EEE 10 µM): 0.010
- Gal9 response compared to reference ([3]; EEE 0.31 µM): 0.023
- Gal9 response compared to reference ([3]; EEE 0.62 µM): 0.020
- Gal9 response compared to reference ([3]; EEE 1.25 µM): 0.019
- Gal9 response compared to reference ([3]; EEE 2.5 µM): 0.022
- Gal9 response compared to reference ([3]; EEE 5 µM): 0.024
- Gal9 response compared to reference ([3]; EEE 10 µM): 0.121
- Gal9 response compared to reference ([4]; EEE 0.31 µM): 0.004
- Gal9 response compared to reference ([4]; EEE 0.62 µM): 0.004
- Gal9 response compared to reference ([4]; EEE 1.25 µM): 0.003
- Gal9 response compared to reference ([4]; EEE 2.5 µM): 0.004
- Gal9 response compared to reference ([4]; EEE 5 µM): 0.004
- Gal9 response compared to reference ([4]; EEE 10 µM): 0.005
- Gal9 response compared to reference ([5]; EEE 0.31 µM): 0.014
- Gal9 response compared to reference ([5]; EEE 0.62 µM): 0.014
- Gal9 response compared to reference ([5]; EEE 1.25 µM): 0.012
- Gal9 response compared to reference ([5]; EEE 2.5 µM): 0.012
- Gal9 response compared to reference ([5]; EEE 5 µM): 0.012
- Gal9 response compared to reference ([5]; EEE 10 µM): 0.042
- Gal9 response compared to reference ([6]; EEE 0.31 µM): 0.008
- Gal9 response compared to reference ([6]; EEE 0.62 µM): 0.009
- Gal9 response compared to reference ([6]; EEE 1.25 µM): 0.008
- Gal9 response compared to reference ([6]; EEE 2.5 µM): 0.007
- Gal9 response compared to reference ([6]; EEE 5 µM): 0.011
- Gal9 response compared to reference ([6]; EEE 10 µM): 0.129
- Gal9 response compared to reference ([7]; EEE 0.31 µM): 0.010
- Gal9 response compared to reference ([7]; EEE 0.62 µM): 0.011
- Gal9 response compared to reference ([7]; EEE 1.25 µM): 0.010
- Gal9 response compared to reference ([7]; EEE 2.5 µM): 0.010
- Gal9 response compared to reference ([7]; EEE 5 µM): 0.010
- Gal9 response compared to reference ([7]; EEE 10 µM): 0.024
- Luciferase expression compared to reference [8]: 0.810
- Gal9 response compared to reference ([9]; EEE 0.31 µM): 0.009
- Gal9 response compared to reference ([9]; EEE 0.62 µM): 0.007
- Gal9 response compared to reference ([9]; EEE 1.25 µM): 0.008
- Gal9 response compared to reference ([9]; EEE 2.5 µM): 0.012
- Gal9 response compared to reference ([9]; EEE 5 µM): 0.008
- Gal9 response compared to reference ([9]; EEE 10 µM): 0.022
